Measurements reported in patent publication EP4782453A1 (Beyang Therapeutics Co., Ltd., priority 2023, dated 2025).

What follows are compounds tested against T1, Menin-MLL (Homo sapiens, UniProt O00255) (assay: Inhibitory activity against Menin-MLL binding (fluorescence polarization)). Settings: Menin-MLL IC50, fluorescence polarization; 150 nM His-Menin, 15 nM FITC-MLL; 25°C for 60 min.
T1 construct: His-Menin (M1-L615 end); purchased BIORTUS BP9210
T1 sequence (O00255 1-615 isoform O00255-1): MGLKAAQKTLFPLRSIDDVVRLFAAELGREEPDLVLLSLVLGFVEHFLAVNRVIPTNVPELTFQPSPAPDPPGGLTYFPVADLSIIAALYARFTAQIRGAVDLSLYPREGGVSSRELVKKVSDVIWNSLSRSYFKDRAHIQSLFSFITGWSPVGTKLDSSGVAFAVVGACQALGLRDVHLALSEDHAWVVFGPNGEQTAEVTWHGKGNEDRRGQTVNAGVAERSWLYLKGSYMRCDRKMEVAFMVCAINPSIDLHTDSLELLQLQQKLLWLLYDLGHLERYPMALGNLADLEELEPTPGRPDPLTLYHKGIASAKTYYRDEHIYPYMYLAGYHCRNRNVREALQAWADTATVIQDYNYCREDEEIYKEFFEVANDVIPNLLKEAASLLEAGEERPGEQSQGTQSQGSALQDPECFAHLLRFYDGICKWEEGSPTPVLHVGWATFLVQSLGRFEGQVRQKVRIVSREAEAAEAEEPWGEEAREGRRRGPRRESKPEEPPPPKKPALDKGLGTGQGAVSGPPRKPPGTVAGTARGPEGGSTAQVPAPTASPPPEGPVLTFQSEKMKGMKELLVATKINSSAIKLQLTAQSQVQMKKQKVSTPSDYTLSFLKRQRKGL
Method in brief: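 His-Menin (M1-L615, 150 nM) preincubated with compound 15 min at 25 °C in HEPES pH 7.5, 50 mM NaCl, 1 mM DTT, 0.01% BSA, then 15 nM FITC-MLL4-43 peptide added for 60 min at 25 °C. Fluorescence polarization read; IC50 from 4-parameter logistic fit, duplicates.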

Compared with CCN(C(=O)c1cc(F)ccc1-c1cc(C2CCN(C[C@H]3CC[C@H](NS(=O)(=O)CC)CC3)C2)cn2c(C3CC3)ncc12)C(C)C (stereo partly shown) [Compound 69, 2-[3-cyclopropyl-6-(1-{[(1r,4r)-4-ethanesulfonamidocyclohexyl]methyl}pyrrolidin-3-yl)imidazo[1,5-a]pyridin-8-yl]-N-ethyl-5-fluoro-N-(isopropyl)benzamide], CCN(C(=O)c1cc(F)ccc1-c1cc([C@H]2CCN(C[C@H]3CC[C@H](NS(=O)(=O)CC)CC3)C2)cc2cncn12)C(C)C [Example 25-2, N-ethyl-5-fluoro-N-isopropyl-2-{7-[(3R)-1-{[(1r,4r)-4-ethanesulfonamidocyclohexyl]methyl}pyrrolidin-3-yl]imidazo[1,5-a]pyridin-5-yl}benzamide] is 11-fold lower in IC50: 222 nM for the first, 21 nM for the second. The second is the more potent here.

Compared with CCN(C(=O)c1cc(F)ccc1-c1cc(N2CCN(C(=O)C3NC4CCC3CC4)CC2)cn2c(C)ncc12)C(C)C [Compound 59, N-ethyl-5-fluoro-2-(3-methyl-6-{4-[(1R,3S,4S)-2-azabicyclo[2.2.2]octan-3-carbonyl]piperazin-1-yl}imidazo[1,5-a]pyridin-8-yl)-N-(isopropyl)benzamide], Cc1ncc2c(-c3ccc(F)cc3C(=O)N(CC(F)F)C(C)C)cc(N3CCN(C(=O)C4NC5CCC4CC5)CC3)cn12 [Example 94, N-(2,2-difluoroethyl)-5-fluoro-2-(3-methyl-6-{4-[(1R,3S,4S)-2-azabicyclo[2.2.2]octan-3-carbonyl]piperazin-1-yl}imidazo[1,5-a]pyridin-8-yl)-N-(isopropyl)benzamide] is 1.9-fold higher in IC50: 23 nM for the first, 44.5 nM for the second. The first is the more potent here.

CCN(C(=O)c1cc(F)ccc1-c1cc([C@@H]2CCN(C[C@H]3CC[C@H](NS(=O)(=O)CC)CC3)C2)nc2c1cnn2C)C(C)C [Example 11-1] showed an IC50 of 744 nM.

Same assay, conditions: fluorescence polarization; 150 nM His-Menin, 15 nM FITC-MLL; 25°C for 60 min; read-out: Menin-MLL IC50

Going from CCN(C(=O)c1cc(F)ccc1-c1nc(C2CN(C(CCCN3CCN(CCO)CC3)C(C)C)C2)cn2c(C)ncc12)C(C)C (stereo not shown) [Example 491, N-ethyl-5-fluoro-2-[6-(1-{6-[4-(2-hydroxyethyl)piperazin-1-yl]-2-methylhexan-3-yl}azacyclobutan-3-yl)-3-methylimidazo[1,5-a]pyrazin-8-yl]-N-(isopropyl)benzamide] to CCN(C(=O)c1cc(F)ccc1-c1cc(C2CN([C@H](CCCN3CCN(C)CC3)C(C)C)C2)cn2c(C)nnc12)C(C)C [Example 360-1, N-ethyl-5-fluoro-2-(3-methyl-6-{1-[(3R)-2-methyl-6-(4-methylpiperazin-1-yl)hexan-3-yl]azacyclobutan-3-yl}-[1,2,4]triazolo[4,3-a]pyridin-8-yl)-N-(isopropyl)benzamide], the IC50 falls from 130 nM to 83 nM (1.6-fold). The second is the more potent here.

Compared with Cc1nc(F)c2c(-c3ccc(F)cc3C(=O)N3CCOC[C@H]3C)cc(C3CN([C@H](CO[C@H]4CCN(C)C4)C(C)C)C3)cn12 [Example 322, (3R)-4-[5-fluoro-2-(1-fluoro-3-methyl-6-{1-[(2S)-3-methyl-1-{[(3S)-1-methylpyrrolidin-3-yl]oxy}butan-2-yl]azacyclobutan-3-yl}imidazo[1,5-a]pyridin-8yl)benzoyl]-3-methylmorpholine], Cc1nc(F)c2c(-c3ccc(F)cc3C(=O)N3CCOC[C@H]3C)cc(C3CN([C@H](CCCN4CCOCC4)C(C)C)C3)cn12 [Example 199-1, (3R)-4-[5-fluoro-2-(1-fluoro-3-methyl-6-{1-[(3R)-2-methyl-6-(morpholin-4-yl)hexan-3-yl]azacyclobutan-3-yl}imidazo[1,5-a]pyridin-8-yl)benzoyl]-3-methylmorpholine] is 13-fold higher in IC50: 2 nM for the first, 26 nM for the second. The first is the more potent here.

CCN(C(=O)c1cc(F)ccc1-c1cc(C2CCN(C[C@H]3CC[C@H](NC(C)=O)CC3)C2)cn2cncc12)C(C)C (stereo partly shown) [Example 45] and CCN(C(=O)c1cc(F)ccc1-c1cc(C2CCN(C[C@H]3CC[C@H](N4CCOC4=O)CC3)C2)nc2c1cnn2C)C(C)C (stereo partly shown) [Example 28] are within 1.5-fold of each other in IC50: 95.5 nM for the first, 118 nM for the second.

First: CCN(C(=O)c1cc(F)ccc1-c1cc(C2CN([C@H](CCCN3CCN(CCC#N)C(=O)C3)C(C)C)C2)cn2c(C)ncc12)C(C)C [Example 493]
Second: CCN(C(=O)c1cc(F)ccc1-c1cc(C2CN(C(CCC(=O)O)C(C)C)C2)cn2c(C)ncc12)C(C)C (stereo not shown) [Example 427, 4-[3-(8-{2-[ethyl(isopropyl)aminoformyl]-4-fluorophenyl}-3-methylimidazo[1,5-a]pyridin-6-yl)azacyclobutan-1-yl]-5-methylhexanoic acid]
The IC50 of the first is 24-fold lower: 5 nM for the first, 120 nM for the second.

Going from Cc1nc(F)c2c(-c3ccc(F)cc3C(=O)N(CC(F)F)C(C)C)cc(C3CN(C(=O)[C@@H]4C[C@@H](C)CCN4)C3)cn12 [Example 155] to CCNC(=O)N1CCC([C@H](C)N2CC(c3cc(-c4ccc(F)cc4C(=O)N(CC)C(C)C)c4c(F)nc(C)n4c3)C2)CC1 [Example 282-2, N-ethyl-4-[(1S)-1-[3-(8-{2-[ethyl(isopropyl)aminoformyl]-4-fluorophenyl}-1-fluoro-3-methylimidazo[1,5-a]pyridin-6-yl)azacyclobutan-1-yl]ethyl]piperidin-1-formamide], the IC50 falls from 23 nM to 1 nM (23-fold). The second is the more potent here.

Compared with CCN(C(=O)c1cc(F)ccc1-c1cc(C2CN([C@@H](CC[C@H]3COCCN3)C(C)C)C2)cn2c(C)ncc12)C(C)C [Example 457-1, N-ethyl-5-fluoro-2-(3-methyl-6-{1-[(3S)-4-methyl-1-[(3S)-morpholin-3-yl]pentan-3-yl]azacyclobutan-3-yl}imidazo[1,5-a]pyridin-8-yl)-N-(isopropyl)benzamide], CCN(C(=O)c1cc(F)ccc1-c1cc(C2CN(C(CO)C(C)C)C2)cn2c(C)ncc12)C(C)C (stereo not shown) [Example 421, N-ethyl-5-fluoro-2-{6-[1-(1-hydroxyl-3-methylbutan-2-yl)azacyclobutan-3-yl]-3-methylimidazo[1,5-a]pyridin-8-yl}-N-(isopropyl)benzamide] is 2.9-fold lower in IC50: 40 nM for the first, 14 nM for the second.

Going from COCC(C1CCOCC1)N1CC(c2cc(-c3ccc(F)cc3C(=O)N3CCOC[C@H]3C)c3c(F)nc(C)n3c2)C1 (stereo partly drawn) [Example 255, (3R)-4-[5-fluoro-2-(1-fluoro-6-{1-[2-methoxy-1-(oxacyclohexan-4-yl)ethyl]azacyclobutan-3-yl}-3-methylimidazo[1,5-a]pyridin-8-yl)benzoyl]-3-methylmorpholine] to Cc1nc(F)c2c(-c3ccc(F)cc3C(=O)N3CCOC[C@H]3C)cc(C3CN(C(C)C4CCOCC4)C3)cn12 (stereo partly drawn) [Example 238, (3R)-4-[5-fluoro-2-(1-fluoro-3-methyl-6-{1-[1-(oxacyclohexan-4-yl)ethyl]azacyclobutan-3-yl}imidazo[1,5-a]pyridin-8-yl)benzoyl]-3-methylmorpholine], the IC50 falls from 86 nM to 10 nM (8.6-fold).

First: CCN(C(=O)c1cc(F)ccc1-c1cc(N2CCN(C(=O)[C@H]3CCCN3)CC2)cn2c(C)ncc12)C(C)C [Example 106]
Second: CCN(C(=O)C(C)C)c1cc(F)ccc1-c1cc(N2CCN(C(=O)C3NC4CCC3CC4)CC2)cn2c(C)ncc12 [Example 71, N-ethyl-N-[5-fluoro-2-(3-methyl-6-{4-[(1R,3S,4S)-2-azabicyclo[2.2.2]octan-3-carbonyl]piperazin-1-yl}imidazo[1,5-a]pyridin-8-yl)phenyl]-2-methylpropionamide]
The IC50 of the first is 10-fold higher: 153 nM for the first, 15 nM for the second.

CCN(C(=O)c1cc(F)ccc1-c1cc(C2CN(C(CN3CCOCC3)C(C)C)C2)cn2c(C)ncc12)C(C)C (stereo not shown) [Example 439, N-ethyl-5-fluoro-2-(3-methyl-6-{1-[3-methyl-1-(morpholin-4-yl)butan-2-yl]azacyclobutan-3-yl}imidazo[1,5-a]pyridin-8-yl)-N-(isopropyl)benzamide] and CCN(C(=O)c1cc(F)ccc1-c1cc(C2CN([C@H](CN3CCN(C(C)=O)CC3)C(C)C)C2)cn2c(C)ncc12)C(C)C [Example 443] are within 1.5-fold of each other in IC50: 21 nM for the first, 19.5 nM for the second.

Going from CCS(=O)(=O)N[C@@H]1CC[C@@H](CN2CC[C@@H](c3cc(-c4ccc(F)cc4C(=O)N(CC(F)F)C(C)C)c4cnc(C)n4c3)C2)OC1 [Example 163-1, N-(2,2-difluoroethyl)-2-{6-[(3S)-1-{[(2S,5R)-5-ethanesulfonamidooxacyclohexan-2-yl]methyl}pyrrolidin-3-yl]-3-methylimidazo[1,5-a]pyridin-8-yl}-5-fluoro-N-(isopropyl)benzamide] to CCN(C(=O)c1cc(F)ccc1-c1cc(C2CN([C@H](C)C3CCN(C(C)=O)CC3)C2)cn2c(C)ncc12)C(C)C [Example 281-2], the IC50 rises from 47 nM to 79 nM (1.7-fold). The first is the more potent here.

CC(=O)N1CC2CCC(C1)N2CCC[C@H](C(C)C)N1CC(c2cc(-c3ccc(F)cc3C(=O)N3CCOC[C@H]3C)c3cnn(C)c3c2)C1 [Example 383] and CC(=O)N1CCC([C@H](C(C)C)N2CC(c3cc(-c4ccc(F)cc4C(=O)N4CCOC[C@H]4C)c4c(F)nc(C)n4c3)C2)CC1 [Example 357-1, 1-{4-[(1S)-1-[3-(1-fluoro-8-{4-fluoro-2-[(3R)-3-methylmorpholin-4-carbonyl]phenyl}-3-methylimidazo[1,5-a]pyridin-6-yl)azacyclobutan-1-yl]-2-methylpropyl]piperidin-1-yl}ethan-1-one] are within 1.5-fold of each other in IC50: 17 nM for the first, 15.5 nM for the second.

With CCN(C(=O)c1cc(F)ccc1-c1cc(C2CN([C@H](CN3CCN(C(C)=O)CC3)C(C)C)C2)cc2c1cnn2C)C(C)C [Example 417] the IC50 was 62 nM.
